Source: patent US12655125B2 (SIRONAX LTD., priority 2020, dated 2026)

These molecules were tested on HT-29 cells (assay: HT29 Cells 0FBS Assay In Vitro (TNF-α/SMAC mimetic/zVAD-FMK induced necroptosis, CellTiter-Glo cell viability)). Details: Homo sapiens; HT-29 cells, FBS free medium, TNF-α (10 ng/ml), SMAC mimetic (6 uM), zVAD-FMK (10 μM), 20 hours; geometric mean EC50; read-out: Cell activity (EC50) of Compounds 1-116.
Type: cell-based
Outline: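 Viability was measured by ATP luminescence (CellTiter-Glo) after 20 h at 37° C of compound exposure in 10-point, 1:3 dilutions. Necroptosis in FBS-free HT-29 cultures was driven by a TNF-α (10 ng/ml), SMAC mimetic (6 μM) and zVAD-FMK (10 μM) cocktail. EC50 values are geometric means from duplicate curves.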

SMILES | EC50 [nM]
Cc1nnn(C)c1-c1ncc(F)c(OC2CN(C(=O)N3N=CC[C@H]3c3cc(F)cc(F)c3)C2)n1 [compound 46, (S)-(5-(3,5-difluorophenyl)-4,5-dihydro-1H-pyrazol-1-yl)(3-((2-(1,4-dimethyl-1H-1,2,3-triazol-5-yl)-5-fluoropyrimidin-4-yl)oxy)azetidin-1-yl)methanone] | 0.1 to 100
CNC(=O)Cn1nc(C)c(-c2cc(OC3CN(C(=O)N4N=CC[C@H]4c4cc(F)cc(F)c4)C3)c(F)cn2)c1C [compound 97, (S)-2-(4-(4-((1-(5-(3,5-difluorophenyl)-4,5-dihydro-1H-pyrazole-1-carbonyl)azetidin-3-yl)oxy)-5-fluoropyridin-2-yl)-3,5-dimethyl-1H-pyrazol-1-yl)-N-methylacetamide] | 0.1 to 100
Cc1nc(C)n(-c2ncc(F)c(OC3CN(C(=O)N4N=CC[C@H]4c4cc(F)cc(F)c4)C3)n2)n1 [compound 103, (S)-(5-(3,5-difluorophenyl)-4,5-dihydro-1H-pyrazol-1-yl)(3-((2-(3,5-dimethyl-1H-1,2,4-triazol-1-yl)-5-fluoropyrimidin-4-yl)oxy)azetidin-1-yl)methanone] | 0.1 to 100

Same assay, conditions: Homo sapiens; HT-29 cells, FBS free medium, TNF-α (10 ng/ml), SMAC mimetic (6 uM), zVAD-FMK (10 μM), 20 hours; geometric mean EC50; read-out: Cell activity (EC50) of Compounds 117-281

SMILES | EC50 [nM]
Cc1nn(-c2cc(OC3CN(C(=O)N4N=CC[C@H]4c4cc(F)cc(F)c4)C3)c(F)cn2)c(C)c1CCO [compound 259, (S)-(5-(3,5-difluorophenyl)-4,5-dihydro-1H-pyrazol-1-yl)(3-((5-fluoro-2-(4-(2-hydroxyethyl)-3,5-dimethyl-1H-pyrazol-1-yl)pyridin-4-yl)oxy)azetidin-1-yl)methanone] | 0.1 to 100
Cc1cn[nH]c1-c1cc(OC2CN(C(=O)N3N=CC[C@H]3c3cc(F)cc(F)c3)C2)c(F)cn1 [compound 126, (S)-(5-(3,5-difluorophenyl)-4,5-dihydro-1H-pyrazol-1-yl)(3-((5-fluoro-2-(4-methyl-1H-pyrazol-5-yl)pyridin-4-yl)oxy)azetidin-1-yl)methanone] | 0.1 to 100
Cc1cn(C)nc1-c1cc(OC2CN(C(=O)N3N=CC[C@H]3c3cc(F)cc(F)c3)C2)c(F)cn1 [compound 219, (S)-(5-(3,5-difluorophenyl)-4,5-dihydro-1H-pyrazol-1-yl)(3-((2-(1,4-dimethyl-1H-pyrazol-3-yl)-5-fluoropyridin-4-yl)oxy)azetidin-1-yl)methanone] | 0.1 to 100
COCCNc1nn(C)c(-c2cc(OC3CN(C(=O)N4N=CC[C@H]4c4cc(F)cc(F)c4)C3)c(F)cn2)c1C [compound 160, (S)-(5-(3,5-difluorophenyl)-4,5-dihydro-1H-pyrazol-1-yl)(3-((5-fluoro-2-(3-((2-methoxyethyl)amino)-1,4-dimethyl-1H-pyrazol-5-yl)pyridin-4-yl)oxy)azetidin-1-yl)methanone] | 0.1 to 100
Cc1nn(-c2cc(OC3CN(C(=O)N4N=CC[C@H]4c4cc(F)cc(F)c4)C3)c(F)cn2)c(C)c1CN(C)C [compound 269, (S)-(5-(3,5-difluorophenyl)-4,5-dihydro-1H-pyrazol-1-yl)(3-((2-(4-((dimethylamino)methyl)-3,5-dimethyl-1H-pyrazol-1-yl)-5-fluoropyridin-4-yl)oxy)azetidin-1-yl)methanone] | 0.1 to 100
Cc1nn(-c2cc(OC3CN(C(=O)N4N=CC[C@H]4c4cc(F)cc(F)c4)C3)c(F)cn2)c(C)c1N1CCCC1=O [compound 270, (S)-1-(1-(4-((1-(5-(3,5-difluorophenyl)-4,5-dihydro-1H-pyrazole-1-carbonyl)azetidin-3-yl)oxy)-5-fluoropyridin-2-yl)-3,5-dimethyl-1H-pyrazol-4-yl)pyrrolidin-2-one] | 0.1 to 100
Cc1c(C(N)=O)nn(C)c1-c1ccc(F)c(OC2CN(C(=O)N3N=CC[C@H]3c3cc(F)cc(F)c3)C2)n1 [compound 196, (S)-5-(6-((1-(5-(3,5-difluorophenyl)-4,5-dihydro-1H-pyrazole-1-carbonyl)azetidin-3-yl)oxy)-5-fluoropyridin-2-yl)-1,4-dimethyl-1H-pyrazole-3-carboxamide] | 0.1 to 100
Cc1nn(-c2cc(OC3CN(C(=O)N4N=CC[C@H]4c4cc(F)cc(F)c4)C3)c(F)cn2)c(C)c1NC(=O)C1CC1 [compound 139, (S)—N-(1-(4-((1-(5-(3,5-difluorophenyl)-4,5-dihydro-1H-pyrazole-1-carbonyl)azetidin-3-yl)oxy)-5-fluoropyridin-2-yl)-3,5-dimethyl-1H-pyrazol-4-yl)cyclopropanecarboxamide] | 0.1 to 100
